The test system of data set [1] is N. carnea. Briefly: Kirby-Bauer disk diffusion susceptibility test. It counts as cell-based, Nocardia carnea. The following applies: N. carnea; zone of inhibition; 200 μg/disc. On the procedure:
(§1) Bacterial strains, from clinical origin, were supplied by the National Center for Microbiology, Institute of Health Carlos III (Majadahonda, Madrid). They are detailed in Table I.
(§2) Bacterial cells suspension in sterile saline was prepared from a culture of 24-72 h, depending on bacterial species, in Mueller-Hinton Agar with 5% sheep blood. Each suspension was adjusted to a fixed size inoculum of 1-5×10^8 CFU/ml with a spectrophotometer (Ferraro, M J National Committee for Clinical Laboratory Standards. 2000).
(§3) Kirby-Bauer disk diffusion susceptibility test protocol was utilized to determine the sensitivity or resistance of pathogenic bacteria against the compounds and others antibiotics. The absence of growth around the disks is an indirect measure of the ability of this compound to inhibit an organism (Kirby, W. et al., Antibiotics Annu. 1956-1957:892). After 18 to 72 hours of incubation at […], with or without CO2, under aerobic or anaerobic conditions, depending on the bacterial species, halo of growth inhibition were obtained and evaluated.
(§4) Interpretation of susceptibility and resistance was based on the presence or absence of a zone of inhibition surrounding the disk. Kirby-Bauer disk diffusion susceptibility test is a common method which uses antibiotic-impregnated wafers to test whether bacteria are affected by antibiotics. The size of the zone of inhibition depends on how effective the antibiotic is at stopping the growth of the bacterium. A stronger antibiotic will create a larger zone, because a lower concentration of the antibiotic is enough to stop growth.
(Agar diffusion results depend on both activity and mobility in agar.)

Data set [2] deals with T. pulmonis. Description: Kirby-Bauer disk diffusion susceptibility test. It counts as cell-based, Tsukamurella pulmonis. To be noted: T. pulmonis; zone of inhibition; 200 μg/disc. On the procedure: as §1, §2, §3, §4
Data set [3] concerns M. abscessus. Description: Kirby-Bauer disk diffusion susceptibility test. It counts as cell-based, Mycobacterium abscessus. The following applies: M. abscessus; zone of inhibition; 200 μg/disc. On the procedure:
as §1, §2, §3, §4

Data set [4] relates to E. coli. Briefly: Kirby-Bauer disk diffusion susceptibility test. It counts as cell-based. To be noted: E. coli; zone of inhibition; 200 μg/disc. The procedure:
as §1, §2, §3, §4

Data set [5] concerns E. faecalis. Description: Kirby-Bauer disk diffusion susceptibility test. It counts as cell-based. To be noted: E. faecalis; zone of inhibition; 200 μg/disc. On the procedure:
as §1, §2, §3, §4

For data set [6], the system named is E. faecium. Briefly: Kirby-Bauer disk diffusion susceptibility test. It counts as cell-based. To be noted: E. faecium; zone of inhibition; 200 μg/disc. On the procedure:
as §1, §2, §3, §4

Data set [7] relates to M. chelonae. Briefly: Kirby-Bauer disk diffusion susceptibility test. It counts as cell-based. To be noted: M. chelonae; zone of inhibition; 200 μg/disc. The procedure:
as §1, §2, §3, §4

For data set [8], the system named is M. fortuitum. Briefly: Kirby-Bauer disk diffusion susceptibility test. The following applies: M. fortuitum; zone of inhibition; 200 μg/disc. It counts as cell-based. On the procedure:
as §1, §2, §3, §4

Data set [9] deals with N. cyriacigeorgica. Description: Kirby-Bauer disk diffusion susceptibility test. It counts as cell-based. To be noted: N. cyriacigeorgica; zone of inhibition; 200 μg/disc. On the procedure: as §1, §2, §3, §4
Data set [10] concerns P. aeruginosa. Briefly: Kirby-Bauer disk diffusion susceptibility test. It counts as cell-based. To be noted: P. aeruginosa; zone of inhibition; 200 μg/disc. The procedure: as §1, §2, §3, §4
For data set [11], the system named is S. aureus. Description: Kirby-Bauer disk diffusion susceptibility test. It counts as cell-based. The following applies: S. aureus; zone of inhibition; 200 μg/disc. On the procedure:
as §1, §2, §3, §4

In data set [12] the test system is S. epidermidis. Briefly: Kirby-Bauer disk diffusion susceptibility test. To be noted: S. epidermidis; zone of inhibition; 200 μg/disc. It counts as cell-based. On the procedure: as §1, §2, §3, §4
Data set [13] relates to B. cereus. Description: Kirby-Bauer disk diffusion susceptibility test. It counts as cell-based, Bacillus cereus. The following applies: B. cereus; zone of inhibition; 200 μg/disc. The procedure: as §1, §2, §3, §4
Data set [14] deals with C. parapsilopsis. Briefly: Antifungal disk diffusion susceptibility test (CLSI M44). It counts as cell-based, C. parapsilosis. The procedure:
(§5) Filamentous fungi and yeasts strains, from clinical origin, were supplied by Microbiology Service from The Princess Hospital, Madrid. They are detailed in Table III.
(§6) Filamentous fungi and yeast cells suspensions in distilled water was prepared from a culture of 24-48 h, depending on species, in Sabouraud agar. Each suspension was adjusted to a fixed size inoculum of 1-5×10^8 CFU/ml with a spectrophotometer (Ferraro, M J National Committee for Clinical Laboratory Standards. 2000).
(§7) Antifungal susceptibility tests were developed following the standardized methodology detailed in document CLSI: M44-4: Method for Antifungal Disk diffusion susceptibility testing of yeasts consisting of disk diffusion on agar Muller-Hinton (supplemented with 2% glucose).

The test system of data set [15] is A. flavus. The data set is described as above. It counts as cell-based. On the procedure: as §5, §6, §7
The test system of data set [16] is A. fumigatus. The description is as above. It counts as cell-based. The procedure: as §5, §6, §7
For data set [17], the system named is A. niger. The data set is described as above. It counts as cell-based. On the procedure: as §5, §6, §7
Data set [18] relates to A. terreus. The data set is described as above. It counts as cell-based. The procedure:
as §5, §6, §7

The subject of data set [19] is C. albicans. The description is as above. It counts as cell-based. The procedure: as §5, §6, §7
In data set [20] the test system is C. glabrata. Described as above. It counts as cell-based. The procedure:
as §5, §6, §7

The subject of data set [21] is C. guilliermondii. The data set is described as above. It counts as cell-based. The procedure:
as §5, §6, §7

The subject of data set [22] is C. lusitaniae. The description is as above. It counts as cell-based. On the procedure: as §5, §6, §7
For data set [23], the system named is C. tropicalis. The description is as above. It counts as cell-based. On the procedure:
as §5, §6, §7

Data set [24] has as its system HIV. Briefly: microbe, parasite or virus in culture. It counts as cell-based. The text has this: Assessment of in vitro antiviral activity is usually performed to estimate parameters of antiviral potency and efficacy represented by the percentage of inhibition of HIV activity or IC50. The assay utilized is based on the use of recombinant viruses in which the nef gene, […] for in vitro HIV replication, has been replaced by a Renilla reporter gene so that viral replication can be quantified directly (Garcia-Perez J et al, J Med Virol. 2007 February; 79(2):127-37). The assay was performed infecting MT-2 cells or PHA-activated PBMCs/IL-2 with viral supernatants obtained previously. The study was development in AIDS Immunopathology Unit, National Center of Microbiology, Institute of Health Carlos III, Majadahonda, Madrid, Spain.
All data are expressed as percentage relative to a control with DMSO at the same concentration. Antiviral activity and toxicity curves were performed to the compound at different concentrations.

A short description of data set [25]: Cellular viability (CellTiter Glo) in parallel to the anti-HIV assay. It counts as cell-based. The following applies: human; concentration required to kill 50% of cells; MT-2 cells; read-out: CC50 VIH MT-2. On the procedure: All assays for assessing anti-HIV activity were taken in parallel to determine cellular viability of the culture in the presence or absence of different concentrations of the isolated molecule. It was followed exactly the same methodology as in the anti-HIV assay except with the addition of complete DMEM medium instead of supernatant viral, in the same proportion, and the detection of the viability was performed with the viability detection kit CellTiter Glo (Promega), following manufacturer instructions. Viability is directly proportional to the luciferase activity obtained. All data are expressed as percentage relative to a control with DMSO at the same concentration. Antiviral activity and toxicity curves were performed to the compound at different concentrations.

The test system of data set [26] is CAL33 cell line (head and neck). Description: MTT assay, antitumor activity. It counts as cell-based. To be noted: 750 nM. In general terms: Tetrazolium assays rely on reduction of a dye to a coloured formazan, in cell work by metabolically active cells.
Data set [27] concerns HT29 cell line (colon). Briefly: MTT assay, antitumor activity. It counts as cell-based. To be noted: 750 nM.
For data set [28], the system named is C. albicans. The following applies: clinical strain; cited from earlier work.
Data set [29] relates to C. parapsilopsis. To be noted: C. parapsilosis, clinical strain; cited from earlier work.
Data set [30] relates to C. glabrata. To be noted: clinical strain; cited from earlier work.
Data set [31] has as its system C. tropicalis. To be noted: clinical strain; cited from earlier work.
In data set [32] the test system is C. lusitaniae. The following applies: clinical strain; cited from earlier work.
Data set [33] concerns C. guilliermondii. To be noted: C. guillermondii, clinical strain; cited from earlier work.
In data set [34] the test system is A. niger. The following applies: clinical strain; cited from earlier work.
The test system of data set [35] is A. fumigatus. The following applies: clinical strain; cited from earlier work.
Data set [36] relates to A. flavus. The following applies: clinical strain; cited from earlier work.
The subject of data set [37] is A. terreus. The following applies: clinical strain; cited from earlier work.
Data set [38] has as its system C. Krusei. The following applies: clinical strain; cited from earlier work. Note: key: I = intermediate activity; S = susceptibility; R = Resistance.

Where two headings read alike, the source gives them in different places.

A word on the IC50: it is the concentration that gives 50% inhibition. For orientation: CC50 means the concentration giving 50% cytotoxicity.
Throughout, for Characteristics of the strains: susceptibility to the antifungal: key: I = intermediate activity; S = susceptibility; R = Resistance.

With `CCCCCC1=NN(C(=O)CCOC(=O)CCC(=O)O)OC(CCCCC)C1` (stereo not shown) [DOXA-1], the “Activity (mm), 200 μg/disc” value in data set [1] is on record as 40 mm; in [2], 34 mm; in data set [3] it was 32 mm; in data set [4], 9 mm; in data set [5] it was 34 mm; in data set [6], 34 mm. For the same compound, the “Activity (mm), 200 μg/disc” value in [7] is listed as 34 mm; in [8], 30 mm; in data set [9] it was 35 mm; in data set [10], 9 mm; in [11], 20 mm; in data set [12], 22 mm. The “Activity (mm), 200 μg/disc” value is given as 36 mm in data set [13]; 30 mm in [14]; 20 mm in data set [15]; 15 mm in data set [16]; 18 mm in [17]; 18 mm in data set [18]. Also, the “Activity (mm), 200 μg/disc” value was determined as 25 mm in data set [19]; 30 mm in data set [20]; 38 mm in data set [21]; 38 mm in data set [22]; 30 mm in data set [23]. Further, the IC50 in data set [24] (Human immunodeficiency virus 1, MT2) stood at 130 nM; in data set [24] (Human immunodeficiency virus 1, MT2, read-out: IC50 VIH MT-2), 130 nM. In addition, in data set [24] (anti-HIV activity/toxicity profile, MT-2 cells), the safety index result is “more than 60”. Besides, in data set [25], the half-maximal cytotoxic concentration (CC50) amounted to 8200 nM. The “Inhibition of cell line” value in data set [26] and in [27] was “moderate inhibition” in each case.
Regarding `OC(Cn1cncn1)(Cn1cncn1)c1ccc(F)cc1F` [Fluconazole], the “Characteristics of the strains: susceptibility to the antifungal” value (“Characteristics of the strains” for short) in data set [28] is reported as “S”; in [29] it was “S”; in [30] it was “S”; in data set [31], “S”; in data set [32], “S”; in [33], “R”. For the same compound, the “Characteristics of the strains” value in [34] was “R”; in data set [35], “R”; in data set [36] it was “R”; in data set [37], “R”; in data set [38], “S”.
Take `CC(=O)N1CCN(c2ccc(OCC3COC(Cn4ccnc4)(c4ccc(Cl)cc4Cl)O3)cc2)CC1` (stereo not shown) [Ketoconazole]: the “Characteristics of the strains” value in [28] is reported as “S”; in [29] it was “S”; in [30] it was “S”; in data set [31], “S”; in data set [32], “S”; in data set [33], “R”. In addition, the “Characteristics of the strains” value in [34], in data set [35], in data set [36], in data set [37] and in [38] was “S” each time.
For `Clc1ccccc1C(c1ccccc1)(c1ccccc1)n1ccnc1` [Clotrimazole], the “Characteristics of the strains” value is given as “S” in data set [28]; “S” in [29]; “S” in data set [30]; “S” in data set [31]; “S” in [32]; “R” in data set [33]. Moreover, the “Characteristics of the strains” value in data set [34], in data set [35], in data set [36], in data set [37] and in data set [38] was “S” throughout.
Turning to `C[C@@H]1[C@H](O)[C@@H](C)/C=C/C=C/C=C/C=C/C=C/C=C/C=C/[C@H](O[C@@H]2O[C@H](C)[C@@H](O)[C@H](N)[C@@H]2O)C[C@@H]2O[C@](O)(C[C@@H](O)C[C@@H](O)[C@H](O)CC[C@@H](O)C[C@@H](O)CC(=O)O[C@H]1C)C[C@H](O)[C@H]2C(=O)O` [Amphotericin B], the “Characteristics of the strains” value was “I” in data set [28]; “S” in [29]; “S” in data set [30]; “S” in data set [31]; “I” in [32]; “R” in [33]. Moreover, the “Characteristics of the strains” value in [34] is given as “S”; in data set [35] it was “S”; in [36] it was “I”; in [37], “I”; in data set [38] it was “I”.

The record behind these values is patent US11008295B2, “Compounds having antiinfective, antitumoral and antifungal activity” (priority 2017, dated 2021).
